This is an account of results in article PMC11721672, “Design, Structure–Activity Relationships, and Computational Modeling Studies of a Series of α-Helix Biased, Ultra-Short Glucagon-like Peptide-1 Receptor Agonists” (Molecules, 2024).

Square brackets hold non-standard residues; d marks the D form. Peptide text beside a SMILES is read from it. Bip = N[C@@H](Cc1ccc(-c2ccccc2)cc1)C(=O)O; αMePhe(2-F) = C[C@](N)(Cc1ccccc1F)C(=O)O; Aib = CC(C)(N)C(=O)O

One test has as its target T1, hGLP1 receptor (Homo sapiens, UniProt P43220).
T1 construct: expressed in transfected cells; host or cells: HEK (human embryonic kidney) cells co-expressing hGLP1 receptor and CRE-Luciferase
Nature of the test: GLP-1 receptor agonism assay (HTRF cAMP, HEK cells co-expressing hGLP1 receptor and CRE-Luciferase). The class given is cell-based.

Test [1] deals with human GLP-1 receptor (hGLP-1R). Also noted: method as in PMID 31031702. The following applies: read-out: potency at the human GLP-1 receptor; cited from earlier work.

Broadly, the Emax is the maximal effect, on the per cent scale that the assay sets.

T1 sequence (P43220 24-463): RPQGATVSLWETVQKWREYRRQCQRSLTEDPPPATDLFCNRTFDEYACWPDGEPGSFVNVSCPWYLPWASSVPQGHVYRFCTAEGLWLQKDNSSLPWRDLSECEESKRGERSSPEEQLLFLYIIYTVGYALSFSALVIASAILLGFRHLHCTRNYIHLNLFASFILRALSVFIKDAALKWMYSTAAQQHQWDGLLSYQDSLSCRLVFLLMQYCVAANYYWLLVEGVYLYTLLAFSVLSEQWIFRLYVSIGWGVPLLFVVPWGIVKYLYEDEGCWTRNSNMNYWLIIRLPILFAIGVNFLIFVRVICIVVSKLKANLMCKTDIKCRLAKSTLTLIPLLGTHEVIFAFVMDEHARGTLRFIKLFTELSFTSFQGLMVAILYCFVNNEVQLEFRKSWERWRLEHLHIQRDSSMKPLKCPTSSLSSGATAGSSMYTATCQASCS

For `C[C@@H](O)[C@H](NC(=O)CNC(=O)[C@H](CCC(=O)O)NC(=O)C(C)(C)NC(=O)[C@@H](N)Cc1c[nH]cn1)C(=O)N[C@@](C)(Cc1ccccc1F)C(=O)N[C@H](C(=O)N[C@@H](CO)C(=O)N[C@@H](CC(=O)O)C(=O)N[C@@H](Cc1ccc(-c2ccccc2)cc1)C(=O)NC(C)(C)C(N)=O)[C@@H](C)O` [RXL-3052, His-Aib-Glu-Gly-Thr-α-Me-Phe(2-F)-Thr-Ser-Asp-Bip-Aib-NH2] (H-H[Aib]EGT[αMePhe(2-F)]TSD[Bip][Aib]-NH2), on hGLP1 receptor (Aib analog versus Ala analog at the same position), the “rescue of potency by Aib versus Ala substitution” value is listed as “more than 100 fold”. For the same molecule, the Emax on hGLP1 receptor (HEK293, Table 6 potency profile) is 112%. The “dpEC50 (contribution of Cα-methylation)” value at hGLP1 receptor (dpEC50 = pEC50 (Aib) − pEC50 (Ala) − 0.97, Aib peptide versus the Ala peptide of the same line, 0% HSA) came to 1.11.
Regarding semaglutide, the EC50 in test [1] is 6.2 pM.
